According to PubChem BioAssay (NCI):
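The compound was tested at five concentrations on cells cultured in 96-well plates, with a 48-hour exposure period. TGI: total growth inhibition.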

What was measured:
Test in all cases: growth of human tumour cells (NCI), 48 h
[1] = tested on: 786-0 renal
[2] = tested on: A549 NSCLC
[3] = tested on: ACHN renal
[4] = tested on: BT-549 breast
[5] = tested on: CAKI-1 renal
[6] = tested on: CCRF-CEM leukemia
[7] = tested on: COLO 205 colon
[8] = tested on: DU-145 prostate
[9] = tested on: EKVX NSCLC
[10] = tested on: HCC-2998 colon
[11] = tested on: HCT-116 colon
[12] = tested on: HCT-15 colon
[13] = tested on: HL-60(TB) leukemia
[14] = tested on: HOP-62 NSCLC
[15] = tested on: HOP-92 NSCLC
[16] = tested on: HS 578T breast
[17] = tested on: HT29 colon
[18] = tested on: IGROV1 ovarian
[19] = tested on: K-562 leukemia
[20] = tested on: KM12 colon
[21] = tested on: LOX IMVI melanoma
[22] = tested on: M14 melanoma
[23] = tested on: MALME-3M melanoma
[24] = tested on: MCF7 breast
[25] = tested on: MDA-MB-231 breast
[26] = tested on: MDA-MB-435
[27] = tested on: MDA-N
[28] = tested on: MOLT-4 leukemia
[29] = tested on: NCI-H226 lung
[30] = tested on: NCI-H23 lung
[31] = tested on: NCI-H460 lung
[32] = tested on: NCI-H522 lung
[33] = tested on: NCI/ADR-RES ovarian
[34] = tested on: OVCAR-3 ovarian
[35] = tested on: OVCAR-4 ovarian
[36] = tested on: OVCAR-5 ovarian
[37] = tested on: OVCAR-8 ovarian
[38] = tested on: PC-3 prostate
[39] = tested on: RPMI-8226 leukemia
[40] = tested on: RXF 393 renal
[41] = tested on: SF-268 CNS
[42] = tested on: SF-295 CNS
[43] = tested on: SF-539 CNS
[44] = tested on: SK-MEL-2 melanoma
[45] = tested on: SK-MEL-28 melanoma
[46] = tested on: SK-MEL-5 melanoma
[47] = tested on: SK-OV-3 ovarian
[48] = tested on: SNB-19 CNS
[49] = tested on: SNB-75 CNS
[50] = tested on: SR leukemia
[51] = tested on: SW-620 colon
[52] = tested on: TK-10 renal
[53] = tested on: U251 CNS
[54] = tested on: UACC-257 melanoma
[55] = tested on: UACC-62 melanoma
[56] = tested on: UO-31 renal
[57] = tested on: A498 renal
[58] = tested on: SN12C renal

## Cc1cc(C)c(S(=O)(=O)N2CCCN(S(=O)(=O)c3c(C)cc(C)cc3C)OCCCON(S(=O)(=O)c3c(C)cc(C)cc3C)CCCN(S(=O)(=O)c3c(C)cc(C)cc3C)OCCCO2)c(C)c1
[1]
  TGI: > 100 µM
[2]
  TGI: > 100 µM
[3]
  TGI: > 100 µM
[4]
  TGI: > 100 µM
[5]
  TGI: > 100 µM
[6]
  TGI: > 100 µM
[7]
  TGI: > 100 µM
[8]
  TGI: > 100 µM
[9]
  TGI: > 100 µM
[10]
  TGI: > 100 µM
[11]
  TGI: > 100 µM
[12]
  TGI: > 100 µM
[13]
  TGI: > 100 µM
[14]
  TGI: > 100 µM
[15]
  TGI: > 100 µM
[16]
  TGI: > 100 µM
[17]
  TGI: > 100 µM
[18]
  TGI: > 100 µM
[19]
  TGI: > 100 µM
[20]
  TGI: > 100 µM
[21]
  TGI: > 100 µM
[22]
  TGI: > 100 µM
[23]
  TGI: > 100 µM
[24]
  TGI: > 100 µM
[25]
  TGI: > 100 µM
[26]
  TGI: > 100 µM
[27]
  TGI: > 100 µM
[28]
  TGI: > 100 µM
[29]
  TGI: > 100 µM
[30]
  TGI: > 100 µM
[31]
  TGI: > 100 µM
[32]
  TGI: > 100 µM
[33]
  TGI: > 100 µM
[34]
  TGI: > 100 µM
[35]
  TGI: > 100 µM
[36]
  TGI: > 100 µM
[37]
  TGI: > 100 µM
[38]
  TGI: > 100 µM
[39]
  TGI: > 100 µM
[40]
  TGI: > 100 µM
[41]
  TGI: > 100 µM
[42]
  TGI: > 100 µM
[43]
  TGI: > 100 µM
[44]
  TGI: > 100 µM
[45]
  TGI: > 100 µM
[46]
  TGI: > 100 µM
[47]
  TGI: > 100 µM
[48]
  TGI: > 100 µM
[49]
  TGI: > 100 µM
[50]
  TGI: > 100 µM
[51]
  TGI: > 100 µM
[52]
  TGI: > 100 µM
[53]
  TGI: > 100 µM
[54]
  TGI: > 100 µM
[55]
  TGI: > 100 µM
[56]
  TGI: > 100 µM

## N#CSC#Cc1ccc(C#CSC#N)cc1
[1]
  TGI: 33.5 µM
[57]
  TGI: 36.8 µM
[2]
  TGI: 33.7 µM
[3]
  TGI: 30.1 µM
[4]
  TGI: 32.4 µM
[5]
  TGI: 31.6 µM
[6]
  TGI: > 100 µM
[7]
  TGI: 34.6 µM
[8]
  TGI: 28.3 µM
[9]
  TGI: 37.2 µM
[10]
  TGI: 34.3 µM
[11]
  TGI: 38.7 µM
[12]
  TGI: 38 µM
[13]
  TGI: > 100 µM
[14]
  TGI: 39.3 µM
[15]
  TGI: 26 µM
[16]
  TGI: 48.8 µM
[17]
  TGI: 42.1 µM
[18]
  TGI: 30.5 µM
[19]
  TGI: > 100 µM
[20]
  TGI: 36.8 µM
[21]
  TGI: 34.5 µM
[23]
  TGI: 51.9 µM
[24]
  TGI: 38.6 µM
[25]
  TGI: 35.2 µM
[26]
  TGI: 45.4 µM
[27]
  TGI: 34.5 µM
[28]
  TGI: > 100 µM
[29]
  TGI: 53.6 µM
[30]
  TGI: 35.5 µM
[31]
  TGI: 38.9 µM
[32]
  TGI: 29 µM
[33]
  TGI: 42.5 µM
[34]
  TGI: 39.7 µM
[35]
  TGI: 36 µM
[36]
  TGI: 34.9 µM
[37]
  TGI: 42.6 µM
[38]
  TGI: 29.5 µM
[39]
  TGI: > 100 µM
[40]
  TGI: 35.7 µM
[41]
  TGI: 51.7 µM
[42]
  TGI: 43.4 µM
[43]
  TGI: 43.3 µM
[44]
  TGI: 38.8 µM
[45]
  TGI: 57.2 µM
[46]
  TGI: 33.2 µM
[47]
  TGI: 43 µM
[58]
  TGI: 34.6 µM
[48]
  TGI: 47.7 µM
[50]
  TGI: > 100 µM
[51]
  TGI: 44.1 µM
[52]
  TGI: 31.3 µM
[53]
  TGI: 41.8 µM
[54]
  TGI: 33.8 µM
[55]
  TGI: 32.5 µM
[56]
  TGI: 33.6 µM
